Experimental data published in the supplement of paper PMC10307832.

Experiments:
Test in all cases: relative viability (nuclei count vs DMSO), 5 days (fraction); higher = more cells survive
A-427 = test system: A-427
Summary of the method: (§1)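 Lung cancer cell lines in 1536-well plates got either a single drug or a fixed anchor-drug dose together with five library-drug doses (not always all listed) in √10 steps, by pin tool, on the day after seeding. Nuclei were counted after 5 days, and relative viability is the treated-to-vehicle ratio of nuclei counts. Values are medians of duplicate plates.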

COR-L 105 = test system: COR-L 105
Summary of the method: as §1

EKVX = test system: EKVX
Summary of the method: as §1

EMC-BAC-2 = test system: EMC-BAC-2
Summary of the method: as §1

EPLC-272H = test system: EPLC-272H
Summary of the method: as §1

HARA = test system: HARA
Summary of the method: as §1

HCC-44 = test system: HCC-44
Summary of the method: as §1

LK-2 = test system: LK-2
Summary of the method: as §1

LU99A = test system: LU99A
Summary of the method: as §1

NCI-H1734 = test system: NCI-H1734
Summary of the method: as §1

NCI-H1755 = test system: NCI-H1755
Summary of the method: as §1

NCI-H1792 = test system: NCI-H1792
Summary of the method: as §1

NCI-H1993 = test system: NCI-H1993
Summary of the method: as §1

NCI-H2405 = test system: NCI-H2405
Summary of the method: as §1

NCI-H358 = test system: NCI-H358
Summary of the method: as §1

NCI-H460 = test system: NCI-H460
Summary of the method: as §1

NCI-H596 = test system: NCI-H596
Summary of the method: as §1

NCI-H647 = test system: NCI-H647
Summary of the method: as §1

RERF-LC-KJ = test system: RERF-LC-KJ
Summary of the method: as §1

Nc1cccc2c1CN(C1CCC(=O)NC1=O)C2=O (stereo not given) [Lenalidomide] + Cc1nc(NC(=O)N2CCC[C@H]2C(N)=O)sc1-c1ccnc(C(C)(C)C(F)(F)F)c1 [Alpelisib] (partner 2 µM)
relative viability (A-427; first compound 0.253 µM): 1.11 | relative viability (A-427; first compound 2.53 µM): 1.09 | relative viability (A-427; first compound 8 µM): 1.02 | relative viability (COR-L 105; first compound 0.253 µM): 0.982 | relative viability (COR-L 105; first compound 0.8 µM): 0.81 | relative viability (COR-L 105; first compound 2.53 µM): 1.07 | relative viability (COR-L 105; first compound 8 µM): 0.994 | relative viability (EKVX; first compound 0.253 µM): 0.803 | relative viability (EKVX; first compound 0.8 µM): 0.95 | relative viability (EKVX; first compound 2.53 µM): 0.931 | relative viability (EKVX; first compound 8 µM): 0.772 | relative viability (EMC-BAC-2; first compound 0.253 µM): 0.691 | relative viability (EMC-BAC-2; first compound 0.8 µM): 0.706 | relative viability (EMC-BAC-2; first compound 2.53 µM): 0.762 | relative viability (EMC-BAC-2; first compound 8 µM): 0.625 | relative viability (EPLC-272H; first compound 0.253 µM): 0.975 | relative viability (EPLC-272H; first compound 2.53 µM): 1.03 | relative viability (EPLC-272H; first compound 8 µM): 0.684 | relative viability (HARA; first compound 0.253 µM): 0.782 | relative viability (HARA; first compound 0.8 µM): 0.771 | relative viability (HARA; first compound 2.53 µM): 0.921 | relative viability (HARA; first compound 8 µM): 0.743 | relative viability (HCC-44; first compound 0.253 µM): 0.865 | relative viability (HCC-44; first compound 0.8 µM): 0.594 | relative viability (HCC-44; first compound 2.53 µM): 0.821 | relative viability (HCC-44; first compound 8 µM): 0.663 | relative viability (LK-2; first compound 0.253 µM): 1.11 | relative viability (LK-2; first compound 2.53 µM): 1.09 | relative viability (LK-2; first compound 8 µM): 1.03 | relative viability (LU99A; first compound 0.253 µM): 0.47 | relative viability (LU99A; first compound 0.8 µM): 0.501 | relative viability (LU99A; first compound 2.53 µM): 0.501 | relative viability (LU99A; first compound 8 µM): 0.317 | relative viability (NCI-H1734; first compound 0.253 µM): 0.669 | relative viability (NCI-H1734; first compound 0.8 µM): 0.757 | relative viability (NCI-H1734; first compound 2.53 µM): 0.746 | relative viability (NCI-H1734; first compound 8 µM): 0.608 | relative viability (NCI-H1755; first compound 0.253 µM): 0.865 | relative viability (NCI-H1755; first compound 0.8 µM): 0.913 | relative viability (NCI-H1755; first compound 2.53 µM): 0.985 | relative viability (NCI-H1755; first compound 8 µM): 0.8 | relative viability (NCI-H1792; first compound 0.253 µM): 0.755 | relative viability (NCI-H1792; first compound 0.8 µM): 0.604 | relative viability (NCI-H1792; first compound 2.53 µM): 0.82 | relative viability (NCI-H1792; first compound 8 µM): 0.612 | relative viability (NCI-H1993; first compound 0.253 µM): 0.744 | relative viability (NCI-H1993; first compound 0.8 µM): 0.734 | relative viability (NCI-H1993; first compound 2.53 µM): 0.683 | relative viability (NCI-H1993; first compound 8 µM): 0.713 | relative viability (NCI-H2405; first compound 0.253 µM): 0.672 | relative viability (NCI-H2405; first compound 0.8 µM): 0.83 | relative viability (NCI-H2405; first compound 2.53 µM): 0.843 | relative viability (NCI-H2405; first compound 8 µM): 0.563 | relative viability (NCI-H358; first compound 0.253 µM): 0.902 | relative viability (NCI-H358; first compound 0.8 µM): 0.834 | relative viability (NCI-H358; first compound 2.53 µM): 0.838 | relative viability (NCI-H358; first compound 8 µM): 1.06 | relative viability (NCI-H460; first compound 0.253 µM): 0.363 | relative viability (NCI-H460; first compound 0.8 µM): 0.492 | relative viability (NCI-H460; first compound 2.53 µM): 0.667 | relative viability (NCI-H460; first compound 8 µM): 0.57 | relative viability (NCI-H596; first compound 0.253 µM): 0.574 | relative viability (NCI-H596; first compound 0.8 µM): 0.452 | relative viability (NCI-H596; first compound 2.53 µM): 0.481 | relative viability (NCI-H596; first compound 8 µM): 0.497 | relative viability (NCI-H647; first compound 0.253 µM): 1.22 | relative viability (NCI-H647; first compound 0.8 µM): 1.14 | relative viability (NCI-H647; first compound 2.53 µM): 1.1 | relative viability (NCI-H647; first compound 8 µM): 1.12 | relative viability (RERF-LC-KJ; first compound 0.253 µM): 0.624 | relative viability (RERF-LC-KJ; first compound 0.8 µM): 0.904 | relative viability (RERF-LC-KJ; first compound 2.53 µM): 0.752 | relative viability (RERF-LC-KJ; first compound 8 µM): 0.637

Cc1cn(-c2cc(NC(=O)c3ccc(C)c(Nc4nccc(-c5cccnc5)n4)c3)cc(C(F)(F)F)c2)cn1 [Nilotinib] + Cc1nc(NC(=O)N2CCC[C@H]2C(N)=O)sc1-c1ccnc(C(C)(C)C(F)(F)F)c1 [Alpelisib] (partner 2 µM)
relative viability (A-427; first compound 0.001 µM): 1.07 | relative viability (A-427; first compound 0.01 µM): 1.13 | relative viability (A-427; first compound 0.03162 µM): 1.06 | relative viability (A-427; first compound 0.1 µM): 0.808 | relative viability (COR-L 105; first compound 0.001 µM): 0.905 | relative viability (COR-L 105; first compound 0.01 µM): 1.22 | relative viability (COR-L 105; first compound 0.03162 µM): 0.92 | relative viability (COR-L 105; first compound 0.1 µM): 0.917 | relative viability (EKVX; first compound 0.001 µM): 0.813 | relative viability (EKVX; first compound 0.003162 µM): 1.13 | relative viability (EKVX; first compound 0.01 µM): 1.29 | relative viability (EKVX; first compound 0.03162 µM): 0.909 | relative viability (EKVX; first compound 0.1 µM): 1.02 | relative viability (EMC-BAC-2; first compound 0.001 µM): 0.728 | relative viability (EMC-BAC-2; first compound 0.003162 µM): 0.893 | relative viability (EMC-BAC-2; first compound 0.01 µM): 0.883 | relative viability (EMC-BAC-2; first compound 0.03162 µM): 0.668 | relative viability (EMC-BAC-2; first compound 0.1 µM): 0.787 | relative viability (EPLC-272H; first compound 0.003162 µM): 1.01 | relative viability (EPLC-272H; first compound 0.03162 µM): 0.894 | relative viability (EPLC-272H; first compound 0.1 µM): 0.763 | relative viability (HARA; first compound 0.001 µM): 0.723 | relative viability (HARA; first compound 0.003162 µM): 0.915 | relative viability (HARA; first compound 0.01 µM): 1.06 | relative viability (HARA; first compound 0.03162 µM): 0.551 | relative viability (HARA; first compound 0.1 µM): 0.821 | relative viability (HCC-44; first compound 0.001 µM): 0.708 | relative viability (HCC-44; first compound 0.003162 µM): 0.939 | relative viability (HCC-44; first compound 0.01 µM): 0.898 | relative viability (HCC-44; first compound 0.03162 µM): 0.59 | relative viability (HCC-44; first compound 0.1 µM): 0.74 | relative viability (LK-2; first compound 0.001 µM): 1.16 | relative viability (LK-2; first compound 0.003162 µM): 0.966 | relative viability (LK-2; first compound 0.03162 µM): 1 | relative viability (LK-2; first compound 0.1 µM): 1.22 | relative viability (LU99A; first compound 0.001 µM): 0.495 | relative viability (LU99A; first compound 0.003162 µM): 0.531 | relative viability (LU99A; first compound 0.01 µM): 0.518 | relative viability (LU99A; first compound 0.03162 µM): 0.48 | relative viability (LU99A; first compound 0.1 µM): 0.377 | relative viability (NCI-H1734; first compound 0.001 µM): 0.692 | relative viability (NCI-H1734; first compound 0.003162 µM): 0.638 | relative viability (NCI-H1734; first compound 0.01 µM): 0.682 | relative viability (NCI-H1734; first compound 0.03162 µM): 0.551 | relative viability (NCI-H1734; first compound 0.1 µM): 0.507 | relative viability (NCI-H1755; first compound 0.001 µM): 0.862 | relative viability (NCI-H1755; first compound 0.003162 µM): 1.13 | relative viability (NCI-H1755; first compound 0.01 µM): 0.982 | relative viability (NCI-H1755; first compound 0.03162 µM): 0.707 | relative viability (NCI-H1755; first compound 0.1 µM): 0.785 | relative viability (NCI-H1792; first compound 0.001 µM): 0.57 | relative viability (NCI-H1792; first compound 0.01 µM): 0.718 | relative viability (NCI-H1792; first compound 0.1 µM): 1.01 | relative viability (NCI-H1993; first compound 0.001 µM): 0.716 | relative viability (NCI-H1993; first compound 0.003162 µM): 0.66 | relative viability (NCI-H1993; first compound 0.01 µM): 0.755 | relative viability (NCI-H1993; first compound 0.03162 µM): 0.594 | relative viability (NCI-H1993; first compound 0.1 µM): 0.617 | relative viability (NCI-H2405; first compound 0.001 µM): 0.808 | relative viability (NCI-H2405; first compound 0.003162 µM): 0.733 | relative viability (NCI-H2405; first compound 0.01 µM): 0.715 | relative viability (NCI-H2405; first compound 0.03162 µM): 0.597 | relative viability (NCI-H2405; first compound 0.1 µM): 0.486 | relative viability (NCI-H358; first compound 0.001 µM): 0.958 | relative viability (NCI-H358; first compound 0.003162 µM): 1.18 | relative viability (NCI-H358; first compound 0.01 µM): 0.999 | relative viability (NCI-H358; first compound 0.03162 µM): 0.686 | relative viability (NCI-H358; first compound 0.1 µM): 0.666 | relative viability (NCI-H460; first compound 0.001 µM): 0.518 | relative viability (NCI-H460; first compound 0.003162 µM): 0.88 | relative viability (NCI-H460; first compound 0.01 µM): 0.936 | relative viability (NCI-H460; first compound 0.03162 µM): 0.312 | relative viability (NCI-H460; first compound 0.1 µM): 0.41 | relative viability (NCI-H596; first compound 0.001 µM): 0.457 | relative viability (NCI-H596; first compound 0.003162 µM): 0.541 | relative viability (NCI-H596; first compound 0.01 µM): 0.481 | relative viability (NCI-H596; first compound 0.03162 µM): 0.299 | relative viability (NCI-H596; first compound 0.1 µM): 0.478 | relative viability (NCI-H647; first compound 0.001 µM): 0.956 | relative viability (NCI-H647; first compound 0.003162 µM): 1.16 | relative viability (NCI-H647; first compound 0.03162 µM): 0.958 | relative viability (NCI-H647; first compound 0.1 µM): 0.872 | relative viability (RERF-LC-KJ; first compound 0.001 µM): 0.788 | relative viability (RERF-LC-KJ; first compound 0.003162 µM): 0.831 | relative viability (RERF-LC-KJ; first compound 0.01 µM): 0.838 | relative viability (RERF-LC-KJ; first compound 0.03162 µM): 0.727 | relative viability (RERF-LC-KJ; first compound 0.1 µM): 0.777
